Measurements as given in the supplement of paper PMC11061612.

How the values were obtained:
[1] = tested on: OVKATE (Ovarian Carcinoma); assay: combination Emax (second highest fraction inhibited in the dose matrix, 72 h); higher = more inhibition; extreme values may be limits of the assay
Method in brief: (§1)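 Cell lines in DMEM/F12 or RPMI with 10% FBS were plated in 1536-well plates, held 24 hours at 37°C, 5% CO2, then given two-drug dose matrices for 72 hours (DMSO typically 0.2%). Viability was read by CellTiter-Glo 2.0 luminescence and scaled as inhibition from 0 (vehicle wells) to 1 (blank wells). Combination Emax is the second-highest inhibition in the matrix; Bliss excess is observed combination effect minus expected EA + EB − EA·EB, EA and EB being single-agent effects.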

GCIY (Gastric Carcinoma) = assay: as above
Method in brief: as §1

SK-N-DZ (Neuroblastoma) = assay: as above
Method in brief: as §1

[2] = tested on: NCI-H2170 (Squamous Cell Lung Carcinoma); assay: as above
Method in brief: as §1

[3] = tested on: TOV-21G (Ovarian Carcinoma); assay: as above
Method in brief: as §1

[4] = tested on: BT-474 (Breast Carcinoma); assay: as above
Method in brief: as §1

[5] = tested on: NCI-H1975 (Lung Adenocarcinoma); assay: as above
Method in brief: as §1

DK-MG (Glioblastoma) = assay: as above
Method in brief: as §1

[6] = tested on: JJN-3 (Plasma Cell Myeloma); assay: as above
Method in brief: as §1

[7] = tested on: TK (B-Cell Non-Hodgkin's Lymphoma); assay: as above
Method in brief: as §1

[8] = tested on: BC-1 (B-Cell Non-Hodgkin's Lymphoma); assay: as above
Method in brief: as §1

[9] = tested on: OCI-M1 (Acute Myeloid Leukemia); assay: as above
Method in brief: as §1

[10] = tested on: JURL-MK1 (Chronic Myelogenous Leukemia); assay: as above
Method in brief: as §1

[11] = tested on: RS4-11 (B-Lymphoblastic Leukemia); assay: as above
Method in brief: as §1

[12] = tested on: C2BBe1 (Colorectal Carcinoma); assay: as above
Method in brief: as §1

[13] = tested on: L-363 (Plasma Cell Myeloma); assay: as above
Method in brief: as §1

RVH-421 (Melanoma) [14] = assay: Bliss excess, mean over the matrix (fraction); higher = more synergy
Method in brief: as §1

RVH-421 (Melanoma) [15] = assay: combination Emax (second highest fraction inhibited in the dose matrix, 72 h); higher = more inhibition; extreme values may be limits of the assay
Method in brief: as §1
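Wherever Bliss excess, mean over the matrix is given: after 72 h of two-drug dosing.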

| Structure (SMILES) | combination Emax [1] | combination Emax (GCIY (Gastric Carcinoma)) | combination Emax (SK-N-DZ (Neuroblastoma)) | combination Emax [2] | combination Emax [3] | combination Emax [4] | combination Emax [5] | combination Emax (DK-MG (Glioblastoma)) | combination Emax [6] | combination Emax [7] | combination Emax [8] | combination Emax [9] | combination Emax [10] | combination Emax [11] | combination Emax [12] | combination Emax [13] | Bliss excess (RVH-421 (Melanoma) [14]) | combination Emax (RVH-421 (Melanoma) [15]) |
| --- | --- | --- | --- | --- | --- | --- | --- | --- | --- | --- | --- | --- | --- | --- | --- | --- | --- | --- |
| COc1cc2ncnc(Nc3ccc(F)c(Cl)c3)c2cc1OCCCN1CCOCC1 [Gefitinib] + CC(C)n1c(=O)n(C)c2cnc3cc(F)c(-c4ccc(OCCCN5CCCCC5)nc4)cc3c21 [AZD1390] (first compound max 10 µM, 7x7, partner max 0.3 µM) | 0.155 | 0.459 | 0.19 | 0.784 | 0.275 | 0.485 | 0.419 | 0.248 | 0.236 | 0.076 | 0.601 | 0.0417 | 0.499 | 0.168 | 0.288 | 0.148 | – | – |
| COc1cc2c(cc1OCCCCCOc1cc3c(cc1OC)C(=O)N1C=C(C)C[C@H]1C=N3)N=C[C@@H]1CC(C)=CN1C2=O [SG3199] + O=C(c1cc(Cc2n[nH]c(=O)c3ccccc23)ccc1F)N1CCN(C(=O)C2CC2)CC1 [Olaparib] (first compound max 0.001 µM, 7x7, partner max 10 µM) | 0.0519 | 0.258 | 0.358 | 0.228 | 0.195 | 0.049 | 0.172 | 0.099 | 0.254 | 0.184 | 0.181 | 0.249 | 0.418 | 0.591 | 0.0966 | 0.0669 | -0.0773 | 0.0596 |
| CN(CCO)CC[C@H](CSc1ccccc1)Nc1ccc(S(=O)(=O)NC(=O)c2ccc(N3CCC([C@@H](O)c4ccccc4-c4ccc(Cl)cc4)CC3)cc2)cc1S(=O)(=O)C(F)(F)F [AZD4320] + Nc1ccn([C@@H]2O[C@H](CO)[C@@H](O)C2(F)F)c(=O)n1 [Gemcitabine] (first compound max 1 µM, 7x7, partner max 0.3 µM) | 0.246 | 0.782 | – | – | – | – | – | – | – | – | 0.974 | – | – | – | – | 0.458 | – | – |
| CN(CCO)CC[C@H](CSc1ccccc1)Nc1ccc(S(=O)(=O)NC(=O)c2ccc(N3CCC([C@@H](O)c4ccccc4-c4ccc(Cl)cc4)CC3)cc2)cc1S(=O)(=O)C(F)(F)F [AZD4320] + C[C@@H](Nc1cc(F)cc(F)c1)c1cc(C(=O)N(C)C)cc2c(=O)cc(N3CCOCC3)oc12 [AZD8186] (first compound max 1 µM, 7x7, partner max 3 µM) | 0.438 | 0.719 | 0.868 | 0.764 | 0.37 | 0.428 | 0.421 | 0.557 | 0.497 | 0.999 | 0.461 | 1 | 0.871 | 1 | 0.461 | 0.249 | 0.0798 | 0.464 |
| N#Cc1cnc(Nc2cc(NC[C@H]3CNCCO3)c(C(F)(F)F)cn2)cn1 [SRA737] + Nc1ccn([C@@H]2O[C@H](CO)[C@@H](O)C2(F)F)c(=O)n1 [Gemcitabine] (first compound max 10 µM, 7x7, partner max 0.3 µM) | 0.27 | 0.78 | – | – | – | – | – | – | – | – | 0.979 | – | – | – | – | 0.986 | – | – |
| N#Cc1cnc(Nc2cc(NC[C@H]3CNCCO3)c(C(F)(F)F)cn2)cn1 [SRA737] + O=c1[nH]cc(F)c(=O)[nH]1 [5-Fluorouracil] (first compound max 10 µM, 7x7, partner max 20 µM) | 0.147 | 0.505 | – | – | – | – | – | – | – | – | 0.739 | – | – | – | – | 0.934 | – | – |
| N#Cc1cnc(Nc2cc(NC[C@H]3CNCCO3)c(C(F)(F)F)cn2)cn1 [SRA737] + C=CCn1c(=O)c2cnc(Nc3ccc(N4CCN(C)CC4)cc3)nc2n1-c1cccc(C(C)(C)O)n1 [AZD1775] (first compound max 10 µM, partner max 1 µM) | 0.222 | 0.611 | – | – | – | – | – | – | – | – | 0.988 | – | – | – | – | 0.937 | – | – |
| Cc1cc2ncnn2cc1Nc1ncc2c(n1)n(C1CCOCC1)c(=O)n2C [AZD7648] + O=C(c1cc(Cc2n[nH]c(=O)c3ccccc23)ccc1F)N1CCN(C(=O)C2CC2)CC1 [Olaparib] (first compound max 10 µM, 7x7, partner max 10 µM) | 0.148 | 0.342 | 0.278 | 0.411 | 0.16 | 0.117 | 0.389 | 0.262 | 0.256 | 0.26 | 0.385 | 0.173 | 0.543 | 0.484 | 0.218 | 0.231 | -0.0684 | 0.0825 |
| CN(CCO)CC[C@H](CSc1ccccc1)Nc1ccc(S(=O)(=O)NC(=O)c2ccc(N3CCC([C@@H](O)c4ccccc4-c4ccc(Cl)cc4)CC3)cc2)cc1S(=O)(=O)C(F)(F)F [AZD4320] + CCN(CCO)CCCOc1ccc2c(Nc3cc(CC(=O)Nc4cccc(F)c4)[nH]n3)ncnc2c1 [AZD2811] (first compound max 1 µM, 7x7, partner max 1 µM) | 0.347 | 0.554 | 0.787 | 0.627 | 0.476 | 0.319 | 0.411 | 0.255 | 0.904 | 0.993 | 0.662 | 0.988 | 0.929 | 1 | 0.224 | 0.135 | -0.0297 | 0.196 |
| C[C@@H](c1ccc2nccn2c1)n1nnc2ncc(-c3cnn(C)c3)nc21 [Savolitinib] + CC1(C)CCC(CN2CCN(c3ccc(C(=O)NS(=O)(=O)c4ccc(NCC5CCOCC5)c([N+](=O)[O-])c4)c(Oc4cnc5[nH]ccc5c4)c3)CC2)=C(c2ccc(Cl)cc2)C1 [Venetoclax] (first compound max 1 µM, 7x7, partner max 1 µM) | 0.155 | 0.213 | 0.173 | 0.162 | 0.116 | 0.0943 | 0.126 | 0.352 | 0.234 | 0.907 | 0.209 | 0.102 | 0.127 | 1 | 0.0814 | 0.0979 | – | – |
| CN(CCO)CC[C@H](CSc1ccccc1)Nc1ccc(S(=O)(=O)NC(=O)c2ccc(N3CCC([C@@H](O)c4ccccc4-c4ccc(Cl)cc4)CC3)cc2)cc1S(=O)(=O)C(F)(F)F [AZD4320] + Cc1cc2ncnn2cc1Nc1ncc2c(n1)n(C1CCOCC1)c(=O)n2C [AZD7648] (first compound max 1 µM, 7x7, partner max 10 µM) | 0.303 | 0.609 | 0.651 | 0.674 | 0.209 | 0.154 | 0.35 | 0.261 | 0.473 | 0.991 | 0.509 | 0.981 | 0.827 | 1 | 0.383 | 0.211 | -0.0345 | 0.211 |
| C[C@@H](c1ccc2nccn2c1)n1nnc2ncc(-c3cnn(C)c3)nc21 [Savolitinib] + CN(CC[C@H](CSC1=CC=CC=C1)NC2=C(C=C(C=C2)S(=O)(=O)NC(=O)C3=CC=C(C=C3)N4CCC(CC4)[C@H](C5=CC=CC=C5C6=CC=C(C=C6)Cl)O)S(=O)(=O)C(F)(F)F)CCO [AZD4320] (first compound max 1 µM, 7x7, partner max 1 µM) | – | – | 0.784 | 0.657 | 0.227 | 0.262 | 0.178 | 0.37 | 0.357 | 0.987 | – | 0.993 | 0.889 | 1 | 0.187 | – | – | – |
| Cc1cc2ncnn2cc1Nc1ncc2c(n1)n(C1CCOCC1)c(=O)n2C [AZD7648] + COc1cc([C@@H]2c3cc4c(cc3[C@@H](O[C@@H]3O[C@@H]5CO[C@@H](C)O[C@H]5[C@H](O)[C@H]3O)[C@H]3COC(=O)[C@H]23)OCO4)cc(OC)c1O [Etoposide] (first compound max 10 µM, 7x7, partner max 10 µM) | 0.266 | 0.759 | – | – | – | – | – | – | – | – | 0.984 | – | – | – | – | 0.702 | – | – |
| C[C@@H](c1ccc2nccn2c1)n1nnc2ncc(-c3cnn(C)c3)nc21 [Savolitinib] + Cc1c2c(nn1C)CSCc1cc(n(C)n1)CSc1cc(c3ccccc3c1)OCCCc1c(C(=O)O)n(C)c3c-2c(Cl)ccc13 [AZD5991] (first compound max 1 µM, 7x7, partner max 1 µM) | 0.144 | 0.176 | 0.255 | 0.211 | 0.174 | 0.628 | 0.146 | 0.417 | 0.992 | 0.129 | 1 | 0.186 | 0.129 | 0.435 | 0.134 | 0.992 | – | – |
| Cc1nc(Nc2ncc(C(=O)Nc3c(C)cccc3Cl)s2)cc(N2CCN(CCO)CC2)n1 [Dasatinib] + CC(=O)Nc1cccc(-n2c(=O)n(C3CC3)c(=O)c3c(Nc4ccc(I)cc4F)n(C)c(=O)c(C)c32)c1 [Trametinib] (first compound max 2 µM, 7x7, partner max 1 µM) | 0.484 | 0.83 | 0.192 | 0.537 | 0.8 | 0.0101 | 0.662 | 0.895 | 0.446 | 0.145 | 0.418 | 0.884 | 1 | 0.236 | 0.692 | 0.146 | – | – |
| N#Cc1cnc(Nc2cc(NC[C@H]3CNCCO3)c(C(F)(F)F)cn2)cn1 [SRA737] + CCc1c2c(nc3ccc(O)cc13)-c1cc3c(c(=O)n1C2)COC(=O)[C@]3(O)CC [SN-38] (first compound max 10 µM, 7x7, partner max 0.3 µM) | 0.138 | 0.85 | – | – | – | – | – | – | – | – | 0.952 | – | – | – | – | 0.878 | – | – |
